Measured values published in paper PMC8795404, “Mutations in respiratory complex I promote antibiotic persistence through alterations in intracellular acidity and protein synthesis” (Nature Communications, 2022).

Legend:
Format in all cases: biochemical
[1] = molecular target: T1, ENC-spoT (encapsulin SpoT) (Escherichia coli, UniProt P0AG24); assay: HPLC-UV ([…] nm) ppGpp hydrolysis; conditions: 1 mM ppGpp, 1 mM manganese, cytosolic buffer with 250 mM imidazole and 0.1% triton-X100, 25 °C, pH varied; enzyme encapsulated in nanocage
T1 construct: N-terminal 6xHis tag, C-terminal 30-residue DyP-peroxidase cargo tag; co-expressed in E. coli BL21-AI inside Mycolicibacterium hassiacum encapsulin nanocage
T1 sequence (P0AG24 whole entry): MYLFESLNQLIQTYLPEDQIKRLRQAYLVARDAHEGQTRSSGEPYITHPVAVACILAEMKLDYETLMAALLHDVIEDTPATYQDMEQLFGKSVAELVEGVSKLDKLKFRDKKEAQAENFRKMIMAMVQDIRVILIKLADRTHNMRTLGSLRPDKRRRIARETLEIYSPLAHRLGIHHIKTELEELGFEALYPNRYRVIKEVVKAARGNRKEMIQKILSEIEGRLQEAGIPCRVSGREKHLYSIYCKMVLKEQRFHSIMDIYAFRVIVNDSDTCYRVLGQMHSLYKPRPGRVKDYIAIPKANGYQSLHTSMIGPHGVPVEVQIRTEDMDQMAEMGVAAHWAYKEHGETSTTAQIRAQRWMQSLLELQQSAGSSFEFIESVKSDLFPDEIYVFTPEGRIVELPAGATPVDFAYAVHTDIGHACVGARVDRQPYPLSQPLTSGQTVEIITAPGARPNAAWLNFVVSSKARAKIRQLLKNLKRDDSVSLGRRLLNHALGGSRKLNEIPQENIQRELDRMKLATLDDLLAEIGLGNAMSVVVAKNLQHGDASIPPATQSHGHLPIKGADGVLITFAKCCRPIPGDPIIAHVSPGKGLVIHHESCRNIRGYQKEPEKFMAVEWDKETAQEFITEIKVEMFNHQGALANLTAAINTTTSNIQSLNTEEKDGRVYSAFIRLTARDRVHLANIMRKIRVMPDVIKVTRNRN

6His-SpoT = molecular target: T2, 6His-SpoT (Escherichia coli, UniProt P0AG24); assay: HPLC-UV ([…] nm) ppGpp hydrolysis; conditions: 1 mM ppGpp, 1 mM manganese, cytosolic buffer with 250 mM imidazole, 25 °C, pH varied; free enzyme
T2 construct: full-length with N-terminal His tag (pETM11-SpoT), expressed in E. coli BL21 (DE3) pLysS, Ni-Sepharose purified
T2 sequence (P0AG24 whole entry): as above

[2] = molecular target: T3, complex I (NADH/ubiquinone oxidoreductase) (Escherichia coli, UniProt P0AFC7+P0AFD4+P31979+P33599); assay: NADH absorbance at […] nm, proteoliposomes; conditions: 100 µM NADH, 60 µM decyl-ubiquinone, 5 mM MES/NaOH, 50 mM KCl, 2 mM MgCl2, pH 6.0, 30 °C
T3 construct: gene nuoB; 13-subunit complex, about 550 kDa, NuoF His6-tagged (pBADnuo nuoFHis6) expressed in BW25113 delta-nuo delta-ndh; DDM-purified, in proteoliposomes or in membranes; with NADH-quinone oxidoreductase subunit A; NADH-quinone oxidoreductase subunit E; NADH-quinone oxidoreductase subunit G; NADH-quinone oxidoreductase subunit I; NADH-quinone oxidoreductase subunit J; NADH-quinone oxidoreductase subunit K; NADH-quinone oxidoreductase subunit L; NADH-quinone oxidoreductase subunit M; NADH-quinone oxidoreductase subunit N

SMILES | HPLC-UV (260 nm) ppGpp hydrolysis [1] | HPLC-UV (260 nm) ppGpp hydrolysis (6His-SpoT) | NADH absorbance at 340 nm, proteoliposomes [2]
Nc1nc2c(ncn2[C@@H]2O[C@H](COP(=O)(O)OP(=O)(O)O)[C@@H](OP(=O)(O)OP(=O)(O)O)[C@H]2O)c(=O)[nH]1 [ppGpp] | We used both the encapsulated SpoT and regularly purified SpoT | SpoT hydrolyzes ppGpp to GDP, and that manganese ions are necessary for hydrolysis | 
NC(=O)C1=CN([C@@H]2O[C@H](COP(=O)(O)OP(=O)(O)OC[C@H]3O[C@@H](n4cnc5c(N)ncnc54)[C@H](O)[C@@H]3O)[C@@H](O)[C@H]2O)C=CC1 [NADH] |  |  | liposomes reconstituted with wild-type complex I and the variants oxidized NADH at a similar rate
CCCCCCCCCCC1=C(C)C(=O)C(OC)=C(OC)C1=O [decyl ubiquinone] |  |  | NADH/decyl ubiquinone oxidoreduction was followed by monitoring the decreasing NADH concentration
